Assay [1] has as its target T1, sigma-2 binding site (Cavia porcellus, UniProt H0V073).
T1 construct: Guinea pig whole membrane preparations (P2 microsomal fraction); from tissue; host or cells: guinea pig membranes (P2 microsomal fraction), as described by Weber et al; brain inferred from the sister test b489
T1 sequence (H0V073 1-176): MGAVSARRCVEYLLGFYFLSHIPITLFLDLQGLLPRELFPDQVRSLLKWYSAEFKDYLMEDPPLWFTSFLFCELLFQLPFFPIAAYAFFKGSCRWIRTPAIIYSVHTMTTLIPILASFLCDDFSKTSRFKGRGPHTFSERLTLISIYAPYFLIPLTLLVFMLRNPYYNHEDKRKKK
Kind of assay: biochemical. Details: species or system guinea pig.
Description: For the standard equilibrium assay, the mixtures were incubated for 30 min. at room temperature, then filtered and the radioactivity determined as described above.

Assay [2] addresses T2, sigma-1 binding site (Cavia porcellus, UniProt Q60492).
T2 construct: Guinea pig whole membrane preparations (P2 microsomal fraction); from tissue; host or cells: guinea pig membranes (P2 microsomal fraction), as described by Weber et al; brain inferred from the sister test b489
Kind of assay: biochemical. Details: species or system guinea pig. As to the method: [^3 H]DTG was purchased from DuPont/NEN.
The radioactivity on the filters was determined by scintillation spectrometry at an efficiency of about 50% using Cytoscint (ICN) scintillation fluid.

Assay [3] has as its target sigma receptor. Kind of assay: Sigma receptor binding, [^3 H]DTG, brain membranes (both sigma-1 and sigma-2 sites). The note with it: for IC50: Table 6, [^3 H]DTG; for pKi: running text, Examples 5 and 6, read-out: sigma receptor Ki. Details: species or system guinea pig. As for the experimental part: Sigma receptor binding assays using guinea pig brain membrane homogenates and the radioligand [^3 H]DTG were conducted as described by Weber et al.. […] Briefly, frozen whole guinea-pig brains (Biotrol, Indianapolis, Ind.) were homogenized in 10 volumes (w/v) of ice-cold 320 mM sucrose using a Brinkman polytron. The homogenate was centrifuged at 1,000× g for 20 minutes at 4° C. The supernatant was centrifuged at 20,000× g for 20 minutes at 4° C. The resulting pellet was resuspended in 10 initial volumes of 50 mM Tris/HCl buffer at pH 7.4 and centrifuged at 20,000× g for 20 minutes at 4° C. The resulting pellet was resuspended in 5 initial volumes ice-cold 50 mM Tris/Hcl […], and the final volume was adjusted to yield a protein concentration of 3 mg/ml. Aliquots of 20-ml were stored at -70° C. until used, with no detectable loss of binding.
The protein concentration in the 1-ml final incubation volume was 800 ug/ml, corresponding to 32 mg of brain tissue (original wet weight) and to a tissue concentration within the linear range for specific binding. […] Incubations were terminated after 90 minutes at room temperature by addition of 4 ml of ice-cold 50 mM Tris/HCl (pH 7.4) and rapid filtration of the membrane suspension through Whatman GF/B glass-fiber filters under vacuum, using a 48-well cell harvester (Brandel). The filters were washed 2 times with 4 ml of 50 mM Tris/HCl (pH 7.4). Each filter was suspended in 10 ml Cytoscint (ICI), and radioactivity was measured by liquid scintillation spectrometry at a counting efficiency of approximately 50%. IC50 values were determined by non-linear regression analyis.
(§1) Further sigma receptor binding assays against [^3 H]DTG and 5HT-1A binding assays were conducted according to the procedure outlined in the previous examples.
Radioligand Binding. […] Briefly, membranes (P2 microsomal fraction) were diluted 1:3 with 50 mM Tris HCl (pH 7.4) and 0.4 mL was combined with 50 μL [^3 H]DTG (1-2 nM final concentration) and 50 μL of competing drug or buffer. After 90 min at room temperature, incubation was terminated by rapid filtration under vacuum through Whatman GF/B glass fiber filters using a Brandel 48-well cell harvester. Filters were washed three times with 5 mL of cold Tris HCl buffer and each filter was suspended in 5 mL of Cytoscint (ICN Biomedical). Radioactivity was measured by liquid scintillation spectrometry at a counting efficiency of 50%.

In assay [4] the target is T3, 5-HT1A receptor (Rattus norvegicus, UniProt P19327).
T3 sequence (P19327 1-422): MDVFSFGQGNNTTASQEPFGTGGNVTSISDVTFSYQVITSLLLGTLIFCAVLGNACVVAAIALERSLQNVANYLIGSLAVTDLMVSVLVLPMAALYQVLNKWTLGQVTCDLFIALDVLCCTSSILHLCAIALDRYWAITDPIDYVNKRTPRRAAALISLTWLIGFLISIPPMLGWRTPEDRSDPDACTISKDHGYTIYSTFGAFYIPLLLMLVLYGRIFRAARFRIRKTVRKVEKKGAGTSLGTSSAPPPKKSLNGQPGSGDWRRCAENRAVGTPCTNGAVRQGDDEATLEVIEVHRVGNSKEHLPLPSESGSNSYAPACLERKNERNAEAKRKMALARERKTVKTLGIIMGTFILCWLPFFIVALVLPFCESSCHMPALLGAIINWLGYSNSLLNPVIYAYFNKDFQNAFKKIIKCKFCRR
In words: biochemical. It is filed as binding. Details: 47: 529-540 (1986); from tissue; host or cells: brain tissue, inferred from the cited method (rat frontal cortex). Conditions: for IC50: Table 6, read-out: 5HT-1A (nM) MEAN. As for the experimental part:
as §1

The mark [5] stands for this setting: SIGMA-2 KI vs. 3H-DTG + PENTAZOCINE MEAN.
Where [6] appears, read: SIGMA-1 KI vs. 3H-PENTAZOCINE MEAN.
[7] abbreviates: Table 10, read-out: SIGMA-2 KI vs. 3H-DTG + PENTAZOCINE MEAN.

Experimental findings from US6057371A, “Sigma receptor ligands and the use thereof” (Virginia Commonwealth University, priority 1992, dated 2000) are described below.

pIC50, pKi: −log10 of the molar value. Where a name gives a salt, the structure may show the parent alone. Read-outs that look alike come from different tables or passages of the source.

T2 sequence (Q60492 whole entry): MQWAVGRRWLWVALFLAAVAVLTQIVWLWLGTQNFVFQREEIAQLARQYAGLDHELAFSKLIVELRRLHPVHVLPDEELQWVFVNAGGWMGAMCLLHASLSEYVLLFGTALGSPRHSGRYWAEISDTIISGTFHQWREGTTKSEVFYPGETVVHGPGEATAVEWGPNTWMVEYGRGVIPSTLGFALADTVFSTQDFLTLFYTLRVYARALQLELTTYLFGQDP

As a reminder, the pKi is the Ki on a negative log10 scale, so that one unit is a factor of ten. As to `C[C@@H]1CN(CCCn2c3ccccc3c3ccccc32)C[C@H](C)N1` [Rimoazole, reference compound], in assay [1] (setting [5]), the pKi was 6.58.

`CN1CCN(CCCN2c3ccccc3Sc3ccc(C(F)(F)F)cc32)CC1` [Trifluperizine, reference compound]: the pKi is 6.25 in assay [2] (setting [6]) and 6.79 in assay [1] (setting [5]). The “S1/S2 Ratio” value in assay [2] (Table 11, sigma-1/sigma-2) stood at 3.497.

For `CC(C)N(CCNC(=O)CN1CCCC1=O)C(C)C` [Pramiracetam, reference compound], the pKi in assay [2] (setting [6]) and in assay [1] (setting [5]) was 5.00 in each case. Also, the “S1/S2 Ratio” value in assay [2] (Table 11, sigma-1/sigma-2) amounted to 1.000.

On to `OC(CCCN1CCN(c2ncc(F)cn2)CC1)c1ccc(F)cc1` (stereo not shown) [BMY-14802, reference compound], for which, in assay [1] (setting [7]), the pKi was 6.88.

`CC(C(O)c1ccc(O)cc1)N1CCC(Cc2ccccc2)CC1` (stereo not shown) [Ifenprodil, reference compound]: the pKi in assay [1] (setting [5]) is 8.62.

As for `c1ccc(CCCCN2CCC(c3ccccc3)CC2)cc1` [Compound 81], the IC50 was 0.88 nM in assay [3] and 43.9 nM in assay [4].

`CC(C)(C)[C@@]1(O)CCN2C[C@@H]3c4ccccc4CCc4cccc(c43)[C@H]2C1` [(-)Butaclamol, reference compound]: the pKi in assay [1] (setting [5]) is 5.47.

As for `CC(C)(C)[C@]1(O)CCN2C[C@H]3c4ccccc4CCc4cccc(c43)[C@@H]2C1` [(+)Butaclamol, reference compound], the pKi in assay [1] (setting [5]) is 5.85.

As for `COc1cc(CC(C)NCCCCc2ccccc2)c(OC)cc1Br` (stereo not shown) [Compound 66], the IC50 in assay [3] is 45.1 nM; in assay [4], 272 nM.

On to `c1ccc(CCCNCCCC2CCCCC2)cc1` [Compound 92, N-(3-Cyclohexylpropyl)-3-phenylpropylamine Hydrochloride], for which the results for the IC50 in assay [3] and in assay [4] were 2.99 nM and 26.3 nM, respectively. For the same compound, the pKi in assay [3] is 8.62.

Consider `OCCN1CCN(CCCN2c3ccccc3Sc3ccc(Cl)cc32)CC1` [Perphenazine, reference compound], for which the negative-log Ki (pKi) is 7.60 in assay [2] (setting [6]) and 7.10 in assay [1] (setting [5]). Besides, the “S1/S2 Ratio” value in assay [2] (Table 11, sigma-1/sigma-2) was found to be 0.312.

For the compound `c1ccc(CCCNC2CCCc3ccccc3C2)cc1` (stereo not shown) [Compound 67], the IC50 in assay [3] turned out to be 59.6 nM; in assay [4], 19.3 nM.

With `CCN1CCC[C@H]1CNC(=O)c1c(OC)ccc(Br)c1OC` [Remoxipride, reference compound], in assay [2] (setting [6]), the pKi was 6.51.

Take `OC1(Cc2ccccc2)CCN(CCCCCc2ccccc2)CC1` [Compound 118]: the IC50 was 2.14 nM in assay [3] and 1970 nM in assay [4].

Regarding `CCCN1CCC[C@@H](c2cccc(O)c2)C1` [(-)3-PPP, reference compound], the pKi in assay [2] (setting [6]) was 6.51; in assay [1] (setting [5]) it was 5.90. Also, in assay [2] (Table 11, sigma-1/sigma-2), the “S1/S2 Ratio” value turned out to be 0.248.

Consider `COc1ccc2c(c1)[C@]13CCCC[C@@H]1[C@H](C2)N(C)CC3` [Dextromethorphan, reference compound], for which the pKi in assay [2] (SIGMA-1 KI vs. 3H-P[…]) is 6.28; in assay [1] (setting [5]), 4.82. Also, in assay [2] (guinea pig, microsomes), the “S1/S2 Ratio” value was determined as 0.035.

`c1ccc(CCCCNCCCCc2ccccc2)cc1` [Compound 73]: the IC50 was 6.98 nM in assay [3] and 55.7 nM in assay [4].

Regarding `O=C(CCCN1CCC2(CC1)C(=O)NCN2c1ccccc1)c1ccc(F)cc1` [Spiperone, reference compound], the pKi in assay [2] (setting [6]) was 5.00.

Consider `c1ccc(CCCCNCCCc2ccccc2)cc1` [Compound 72], for which the IC50 in assay [3] turned out to be 7.23 nM; in assay [4] it was 11.3 nM.

For `CN(CCCCCc1ccccc1)Cc1ccccc1` [Compound 137, N-Benzyl-N-methyl-5-phenylpentylamine], the IC50 in assay [3] worked out at 1.11 nM; in assay [1] (Table 18, read-out: IC50 (nM) at sigma-2), 12 nM. Also, the pKi in assay [1] (setting [7]) was 7.90.

Take `O=C(c1ccccc1)N1CCN(CCCCc2ccccc2)CC1` [Compound 80, N-4(4-phenylbutyl)-N'-benzoylpiperazine]: the negative logarithm of the Ki (pKi) in assay [2] (Table 10, read-out: SIGMA-1 KI vs. 3H-PENTAZOCINE MEAN) is 7.14; in assay [1] (setting [7]) it was 6.02.

For `C[C@@H](Cc1ccccc1)N(C)CCCc1ccc2ccccc2c1` [Compound 68], the IC50 in assay [3] worked out at 3.25 nM; in assay [4] it was 1320 nM.

Consider `c1ccc(CCCCCN2CCC(c3ccccc3)CC2)cc1` [Compound 82], for which the figures for the IC50 in assay [3] and in assay [4] were 0.96 nM and 136 nM, respectively.

With `CN(C)CCCN1c2ccccc2Sc2ccc(Cl)cc21` [Chlorpromazine, reference compound], the pKi was 6.47 in assay [2] (setting [6]) and 6.15 in assay [1] (setting [5]). Besides, in assay [2] (Table 11, sigma-1/sigma-2), the “S1/S2 Ratio” value is reported as 0.471.

Turning to `CCCN1CCC[C@H](c2cccc(O)c2)C1` [(+)3-PPP, reference compound], the negative logarithm of the Ki (pKi) in assay [2] (setting [6]) was 7.32; in assay [1] (setting [5]), 6.31. For the same compound, the “S1/S2 Ratio” value in assay [2] (Table 11, sigma-1/sigma-2) was 0.097.

Turning to `COc1ccc(OC)c(CC(C)NCCCCc2ccccc2)c1` (stereo not shown) [Compound 65], the IC50 in assay [3] was determined as 72.9 nM; in assay [4], 182 nM.

With `C=CCN1CC[C@@]2(C)c3cc(O)ccc3C[C@@H]1[C@@H]2C` [(-)SKF 10047, reference compound], the negative logarithm of the Ki (pKi) in assay [1] (setting [5]) is 5.04.

On to `CC(C)=CCN(C)[C@@H](C)Cc1ccccc1` [Compound 114], for which the IC50 in assay [3] stood at 6.71 nM; in assay [4], 34000 nM.

Take `CCCc1ccc(CC(C)N(C)CCCc2ccccc2)cc1` (stereo not shown) [Compound 86]: the IC50 came out at 2.43 nM in assay [3] and 502 nM in assay [4].

Regarding `Clc1ccc(N2CCN(CCCc3ccccc3)CC2)cc1` [Compound 78], the IC50 in assay [3] came to 3.01 nM; in assay [4] it was 98.4 nM.

Consider `C[C@@H](Cc1ccccc1)N(C)CCCCCc1ccccc1` [Compound 69], for which the IC50 was 2.25 nM in assay [3] and 891 nM in assay [4].

On to `c1ccc(CCCCCCNCCCc2ccccc2)cc1` [Compound 110], for which the IC50 was determined as 3.62 nM in assay [3] and 117 nM in assay [4].

Turning to `O=C1c2ccccc2C(=O)N1CCCCCN1CCN(c2ccccc2)CC1` [Compound 98], the IC50 in assay [3] was 6.18 nM; in assay [4], 2.23 nM.

As to `CC(C)CCN(C)[C@@H](C)Cc1ccccc1` [Compound 115], the figures for the IC50 in assay [3] and in assay [4] were 3.04 nM and 20000 nM, respectively.

One may read the pIC50 as −log10 of the IC50, conventionally taken in molar units. `C[C@@H](Cc1ccccc1)N(C)CCc1ccccc1` [Compound 36]: in assay [4] (Table 5), the “Ratio 5-HT1A /σ” value was 239. The negative logarithm of the IC50 (pIC50) in assay [4] (Table 5, read-out: 5-HT1A IC50) was 5.79.

As to `c1ccc(CCCCCNCC2CCCCC2)cc1` [Compound 93], the “change in sigma affinity, words” value in assay [3] (Example 6) is “binds with twice the affinity”. Further, in assay [3], the IC50 stood at 1.4 nM and the pKi was 8.92. In assay [4], the IC50 was 597 nM.

Consider `CC(Cc1ccc(OCc2ccccc2)cc1)NCCCc1ccccc1` (stereo not shown) [Compound 85], for which the IC50 in assay [3] is 28.1 nM; in assay [4], 1150 nM.

Turning to `CCCc1ccc(CC(C)NCCCc2ccccc2)cc1` (stereo not shown) [Compound 84], the IC50 in assay [3] is 6.43 nM; in assay [4] it was 168 nM.
